Source: patent US9790221B2, “Heteroaryl compounds as IRAK inhibitors and uses thereof” (Merck Patent GmbH, priority 2014, dated 2017)
Where a name gives a salt, the structure may show the parent alone.

How the values were obtained:
[1] = molecular target: IRAK1 (His-TEV-IRAK1 (194-712)) (Homo sapiens (Human), UniProt P51617); test: IRAK1 enzymatic assay; type: biochemical
In short: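 Compounds ([…] down to 1 nM) were incubated 3 h at 30° C with His-TEV-IRAK1 (194-712, 15 ng/well) and 1 μM [33P]-labelled ATP in 50 mM Hepes pH 7.0, 10 mM MgCl2. After EDTA stop and washing, the retained autophosphorylation signal was measured by scintillation in streptavidin-coated plates.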

IRAK4 = IRAK4 (Homo sapiens (Human), UniProt Q9NWZ3); test: IRAK4 enzymatic assay; type: biochemical
In short: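 Radiometric streptavidin FlashPlate read: 3 h, 30° C incubation of His-TEV-IRAK4 (20 ng/well), STK1-biotin substrate (300 nM) and ATP (2 μM, [^33P]-labelled) in Hepes pH 7.0, MgCl2 10 mM, MnCl2 5 mM. Compounds from 20 µM down to 1 nM, 2% DMSO controls; reaction quenched with EDTA.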

[2] = tested on: TLR7 induced IL-6 secretion in human mononuclear cells (PBMC's); test: TLR7 induced IL-6 in human PBMC's; type: cell-based; conditions: Homo sapiens, PBMC, read-out: TLR7 induced IL-6 secretion in hPBMC's (IC50)
In short: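 Fresh or frozen healthy-donor PBMCs preincubated 30 min at 37° C. with compound (25 uM to 0.4 nM; vehicle 0.25% DMSO) in RPMI/10% HI-FBS. Stimulated with TLR7 ligand (2 uM) for 16-18 h at 37° C.; supernatant IL-6 measured by AlphaLISA.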

IRAK4, sequence (Q9NWZ3 whole entry): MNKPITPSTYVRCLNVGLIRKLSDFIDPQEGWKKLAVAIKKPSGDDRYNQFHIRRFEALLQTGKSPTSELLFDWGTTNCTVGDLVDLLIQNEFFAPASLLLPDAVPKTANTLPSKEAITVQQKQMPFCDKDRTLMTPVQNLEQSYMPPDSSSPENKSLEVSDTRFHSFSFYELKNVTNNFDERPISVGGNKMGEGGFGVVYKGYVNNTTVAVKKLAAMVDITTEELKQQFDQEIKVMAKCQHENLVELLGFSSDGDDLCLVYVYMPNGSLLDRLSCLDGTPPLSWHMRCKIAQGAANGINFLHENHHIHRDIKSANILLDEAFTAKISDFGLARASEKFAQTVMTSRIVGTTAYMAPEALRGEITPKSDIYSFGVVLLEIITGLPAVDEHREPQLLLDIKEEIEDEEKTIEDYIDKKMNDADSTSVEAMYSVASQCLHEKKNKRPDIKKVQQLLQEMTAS
IRAK1 (His-TEV-IRAK1 (194-712)), sequence (P51617 194-712): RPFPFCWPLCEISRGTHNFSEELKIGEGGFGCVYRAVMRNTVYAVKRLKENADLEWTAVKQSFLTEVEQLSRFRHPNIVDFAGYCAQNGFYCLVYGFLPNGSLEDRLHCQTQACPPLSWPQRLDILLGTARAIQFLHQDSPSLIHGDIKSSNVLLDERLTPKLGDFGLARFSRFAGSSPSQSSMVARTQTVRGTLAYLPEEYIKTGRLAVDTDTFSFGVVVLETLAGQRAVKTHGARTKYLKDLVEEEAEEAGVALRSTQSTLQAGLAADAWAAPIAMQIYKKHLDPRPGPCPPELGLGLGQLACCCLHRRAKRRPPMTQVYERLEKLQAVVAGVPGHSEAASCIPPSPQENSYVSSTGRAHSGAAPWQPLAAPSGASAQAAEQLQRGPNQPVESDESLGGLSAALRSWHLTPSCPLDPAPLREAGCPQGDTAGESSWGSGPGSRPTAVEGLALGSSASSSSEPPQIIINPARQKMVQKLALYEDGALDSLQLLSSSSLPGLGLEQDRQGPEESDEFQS

Row | IC50 [1] [nM] | IC50 (IRAK4) [nM] | Structure (SMILES) | IC50 [2] [nM]
1 | 100 to 1000 | 100 to 1000 | CC(=O)NC[C@H]1C[C@@H](Nc2nc(-c3cccc(-c4cnn(C)c4)c3)ncc2-c2cnn(C)c2)C1 [Example 211, N-(3-{5-(1-Methyl-1H-pyrazol-4-yl)-2-[3-(1-methyl-1H-pyrazol-4-yl)-phenyl]-pyrimidin-4-ylamino}-cyclobutylmethyl)-acetamide] | 1000 to 5000
2 | 100 to 1000 | < 100 | Cn1cc(-c2cccc(-c3ncc(-c4ccn(C)n4)c(NCCCCO)n3)c2)cn1 [Example 97] | 1000 to 5000
3 | 100 to 1000 | < 100 | Cn1cc(-c2cccc(-c3ncc(-c4cnn(C)c4)c(NC[C@H]4CC[C@H](O)CC4)n3)c2)cn1 [Example 156] | 100 to 1000
4 | < 100 | < 100 | Cn1cc(-c2cccc(-c3ncc(-c4cnn(C)c4)c(NC45CCC(N)(CC4)CC5)n3)c2)cn1 [Example 186] | 100 to 1000
5 | 1000 to 5000 | < 100 | Cn1cc(-c2cccc(-c3ncc(-c4cnn(C)c4)c(N4C[C@@H](N)CC(F)(F)C4)n3)c2)cn1 [Example 284, (S)-5,5-Difluoro-1-{5-(1-methyl-1H-pyrazol-4-yl)-2-[3-(1-methyl-1H-pyrazol-4-yl)-phenyl]-pyrimidin-4-yl}-piperidin-3-ylamine] | 100 to 1000
6 | > 5000 | < 100 | Cc1nnc(-c2cnc(-c3cccc(-c4cnn(C)c4)c3)nc2NC2CCCNC2)s1 (stereo not drawn) [Example 17, [2-[3-(1-Methyl-1H-pyrazol-4-yl)-phenyl]-5-(5-methyl-[1,3,4]thiadiazol-2-yl)-pyrimidin-4-yl]-piperidin-3-yl-amine Hydrochloride] | 100 to 1000
7 | 100 to 1000 | < 100 | Cn1cc(-c2cccc(-c3ncc(-c4cnn(C)c4)c(NC4CCCC4)n3)c2)cn1 [Example 32] | 1000 to 5000
8 | < 100 | < 100 | Cc1nnc(-c2cnc(-c3cccc(-c4cnn(C)c4)c3)nc2N[C@H]2CC[C@H](NS(C)(=O)=O)CC2)s1 [Example 254] | < 100
9 | 100 to 1000 | < 100 | Cn1cc(-c2cccc(-c3ncc(-c4cnn(C)c4)c(N[C@H]4C[C@@H](NS(C)(=O)=O)C4)n3)c2)cn1 [Example 183] | 1000 to 5000
10 | 100 to 1000 | < 100 | Cn1cc(-c2cccc(-c3ncc(-c4cnn(C)c4)c(N[C@H]4CCC[C@@H]4O)n3)c2)cn1 (racemic) [Example 94] | 1000 to 5000
11 | > 5000 | < 100 | Cc1nnc(-c2cnc(-c3cccc(-c4cnn(C)c4)c3)nc2NCCN2CCOCC2)s1 [Example 146] | 1000 to 5000
12 | > 5000 | 100 to 1000 | Cn1cc(-c2cccc(-c3ncc(-c4ccn(C)n4)c(NC4CCCCNC4)n3)c2)cn1 (stereo not drawn) [Example 125] | 100 to 1000
13 | 100 to 1000 | < 100 | Cn1cc(-c2cccc(-c3ncc(-c4ccn(C)n4)c(NC4(CO)COC4)n3)c2)cn1 [Example 93] | 100 to 1000
14 | > 5000 | < 100 | Cn1cc(-c2cccc(-c3ncc(-c4cnn(C)c4)c(NC[C@@H](O)CO)n3)c2)cn1 [Example 56] | 1000 to 5000
15 | 100 to 1000 | 100 to 1000 | Cn1cc(-c2cccc(-c3ncc(-c4cnn(C)c4)c(NC4CC(F)(F)C4)n3)c2)cn1 [Example 48] | > 5000
16 | 100 to 1000 | < 100 | Cn1cc(-c2cccc(-c3ncc(-c4cnn(C)c4)c(NCC(F)(F)F)n3)c2)cn1 [Example 271] | 1000 to 5000
17 | 1000 to 5000 | 100 to 1000 | Cn1cc(-c2cccc(-c3ncc(-c4ccn(C)n4)c(NCCN4CCS(=O)(=O)CC4)n3)c2)cn1 [Example 84] | > 5000
18 | 100 to 1000 | < 100 | Cn1cc(-c2cccc(-c3ncc(-c4cnn(C)c4)c(NC[C@H]4CCCC[C@H]4O)n3)c2)cn1 [Example 225] | 100 to 1000
19 | 100 to 1000 | 100 to 1000 | Cn1cc(-c2cccc(-c3ncc(-c4cnn(C)c4)c(NCC4CC(F)(F)C4)n3)c2)cn1 [Example 42] | 100 to 1000
20 | 100 to 1000 | < 100 | Cn1cc(-c2cccc(-c3ncc(-c4cnn(C)c4)c(NC4CC5(CCN(S(C)(=O)=O)C5)C4)n3)c2)cn1 (stereo not drawn) [Example 169] | > 5000
21 | 100 to 1000 | 100 to 1000 | Cn1cc(-c2cccc(-c3ncc(-c4cnn(C)c4)c(NC4CC(F)C4)n3)c2)cn1 (stereo not drawn) [Example 50] | 1000 to 5000

Row | IC50 [1] [nM] | IC50 (IRAK4) [nM] | Structure (SMILES) | IC50 [2] [nM]
22 | 1000 to 5000 | 100 to 1000 | Cn1cc(-c2cccc(-c3ncc(-c4cnn(C)c4)c(N[C@H]4CCC(=O)NC4)n3)c2)cn1 [Example 60] | 1000 to 5000
23 | < 100 | < 100 | Cn1cc(-c2cccc(-c3ncc(-c4cnn(C)c4)c(O[C@@H]4CCC[C@@H](N)[C@@H]4O)n3)c2)cn1 (racemic) [Example 134, (1S,2R,6R)-2-Amino-6-{5-(1-methyl-1H-pyrazol-4-yl)-2-[3-(1-methyl-1H-pyrazol-4-yl)-phenyl]-pyrimidin-4-yloxy}-cyclohexanol] | < 100
24 | 100 to 1000 | < 100 | Cn1cc(-c2cccc(-c3ncc(-c4cnn(C)c4)c(N[C@H]4CCC[C@H](O)[C@@H]4O)n3)c2)cn1 [Example 208, (1S,2R,3S)-3-{5-(1-Methyl-1H-pyrazol-4-yl)-2-[3-(1-methyl-1H-pyrazol-4-yl)-phenyl]-pyrimidin-4-ylamino}-cyclohexane-1,2-diol] | 100 to 1000
25 | < 100 | < 100 | Cn1cc(-c2cccc(-c3ncc(-c4cnn(C)c4)c(NCCS(N)(=O)=O)n3)c2)cn1 [Example 278] | 100 to 1000
26 | 1000 to 5000 | 100 to 1000 | Cn1cc(-c2cccc(-c3ncc(-c4cnn(C)c4)c(N[C@H]4C[C@H](O)C4)n3)c2)cn1 [Example 47] | > 5000
27 | < 100 | < 100 | Cn1cc(-c2cccc(-c3ncc(-c4cnn(C)c4)c(N[C@@H]4CCN(S(C)(=O)=O)C4)n3)c2)cn1 [Example 171] | 1000 to 5000
28 | 1000 to 5000 | < 100 | CN1CCC(CNc2nc(-c3cccc(-c4cnn(C)c4)c3)ncc2-c2cnn([C@H]3CC[C@]4(CCC(=O)N4C)CC3)c2)CC1 [Example 87, 1-Methyl-8-(4-{4-[(1-methyl-piperidin-4-ylmethyl)-amino]-2-[3-(1-methyl-1H-pyrazol-4-yl)-phenyl]-pyrimidin-5-yl}-pyrazol-1-yl)-1-aza-spiro[4.5]decan-2-one] | 1000 to 5000
29 | < 100 | < 100 | CC(=O)NC12CC(Nc3nc(-c4cccc(-c5cnn(C)c5)c4)ncc3-c3cnn(C)c3)(C1)C2 [Example 266] | 100 to 1000
30 | 100 to 1000 | < 100 | Cn1cc(-c2cccc(-c3ncc(-c4cnn(C)c4)c(N[C@H]4CCC[C@H](F)[C@H]4O)n3)c2)cn1 (single isomer, unassigned) [Example 285] | 100 to 1000
31 | 100 to 1000 | < 100 | Cn1cc(-c2cccc(-c3ncc(-c4cnn(C)c4)c(NCC4CC(O)C4)n3)c2)cn1 (stereo not drawn) [Example 181] | 1000 to 5000
32 | 100 to 1000 | < 100 | Cn1cc(-c2cccc(-c3ncc(-c4cnn(C)c4)c(N[C@H]4CC[C@@H](O)CC4)n3)c2)cn1 [Example 221] | 100 to 1000
33 | > 5000 | 100 to 1000 | Cn1cc(-c2cccc(-c3ncc(-c4cnn(C)c4)c(NCCC4CCNC4)n3)c2)cn1 (stereo not drawn) [Example 85] | 1000 to 5000
34 | 100 to 1000 | < 100 | Cn1cc(-c2cccc(-c3ncc(-c4cnn(C)c4)c(N[C@H]4CC[C@H](O)[C@@H]4O)n3)c2)cn1 [Example 273] | 100 to 1000
35 | 100 to 1000 | < 100 | Cn1cc(-c2cccc(-c3ncc(-c4cnn(C)c4)c(N[C@H]4CCC[C@H](O)C4)n3)c2)cn1 (racemic) [Example 162] | 100 to 1000
36 | < 100 | < 100 | Cc1nnc(-c2cnc(-c3cccc(-c4cnn(C)c4)c3)nc2NC2CCCN(S(C)(=O)=O)CC2)s1 (stereo not drawn) [Example 253] | 100 to 1000
37 | > 5000 | < 100 | COC(=O)c1nnc(-c2cnc(-c3cccc(-c4cnn(C)c4)c3)nc2NC2CCCNC2)s1 (stereo not drawn) [Example 18, 5-[2-[3-(1-Methyl-1H-pyrazol-4-yl)-phenyl]-4-(piperidin-3-ylamino)-pyrimidin-5-yl]-[1,3,4]thiadiazole-2-carboxylic Acid Methyl Ester Hydrochloride] | 100 to 1000
38 | < 100 | < 100 | Cn1cc(-c2cccc(-c3ncc(-c4cnn(C)c4)c(N[C@H]4CCC[C@@H](O)C4)n3)c2)cn1 (racemic) [Example 161] | 100 to 1000
39 | 100 to 1000 | < 100 | Cn1cc(-c2cccc(-c3ncc(-c4cnn(C)c4)c(NCC4CCCOC4)n3)c2)cn1 (stereo not drawn) [Example 217] | 1000 to 5000
40 | 100 to 1000 | < 100 | Cn1cc(-c2cccc(-c3ncc(-c4cnn(C)c4)c(NC4CCS(=O)(=O)CC4)n3)c2)cn1 [Example 257] | 1000 to 5000
41 | 100 to 1000 | < 100 | Cc1nnc(-c2cnc(-c3cccc(-c4cnn(C)c4)c3)nc2NC2CCC(N)CC2)s1 (stereo not drawn) [Example 128] | 100 to 1000
